According to ChEMBL document CHEMBL1141645, “Synthesis and antimycobacterial evaluation of new trans-cinnamic acid hydrazide derivatives” (2008):
In brackets after ≈: the same amount, converted by molar mass.

System: Mycobacterium tuberculosis
Experiment: Antimicrobial activity against Mycobacterium tuberculosis ATCC […] by Almar blue assay
Type: functional

| Compound | MIC |
| --- | --- |
| O=C(/C=C/c1ccccc1)NNC(=O)c1ccccc1 | 50 µg/mL (≈ 188 µM) |
| COc1ccc(/C=C/C(=O)NNC(=O)c2ccccc2)cc1 | 12.5 µg/mL (≈ 42.2 µM) |
| COc1ccc(/C=C/C(=O)NNC(=O)c2ccncc2)cc1 | 3.12 µg/mL (≈ 10.5 µM) |
| O=C(/C=C/c1ccc2c(c1)OCO2)NNC(=O)c1ccccc1 | 25 µg/mL (≈ 80.6 µM) |
| O=C(/C=C/c1ccc(Cl)cc1Cl)NNC(=O)c1ccncc1 | > 100 µg/mL |
| O=C(/C=C/c1ccc([N+](=O)[O-])cc1)NNC(=O)c1ccncc1 | 3.12 µg/mL (≈ 9.99 µM) |
| O=C(/C=C/c1ccc2c(c1)OCO2)NNC(=O)c1ccncc1 | 3.12 µg/mL (≈ 10 µM) |
| O=C(/C=C/c1ccc(Cl)cc1Cl)NNC(=O)c1ccccc1 | > 100 µg/mL |
| O=C(/C=C/c1ccc([N+](=O)[O-])cc1)NNC(=O)c1ccccc1 | > 100 µg/mL |
| O=C(/C=C/c1ccccc1)NNC(=O)c1ccncc1 | 3.12 µg/mL (≈ 11.7 µM) |
| NNC(=O)c1ccncc1 [ISONIAZID] | 0.2 µg/mL (≈ 1.46 µM) |
